Common to all, as to assay type: biochemical
The target of assay [1] is T1, Alzheimer's Aβ 1-42 amyloid fibrils (Homo sapiens, UniProt P05067).
T1 construct: 1 mg of Aβ 1-42 (Bachem Inc., Torrance, Calif., USA) was dissolved; purchased Bachem Inc., Torrance, Calif., USA
Description: Disassembly/disruption of pre-formed Aβ 1-42 fibrils, Thioflavin T fluorometry. The note with it: for inhibition at 100 µg/mL: read-out: Fluorescence inhibition, %, at the Aβ 1-42:compound w/w ratio 1:1. The method, then:
For the first study, 1 mg of Aβ 1-42 (Bachem Inc., Torrance, Calif., USA) was dissolved in 1.0 ml of double distilled water (1 mg/ml solution). 25 μM of Aβ 1-42 was then incubated overnight (˜18 hours) at 37° C., in the absence or presence of 100 μg/ml of the following compounds: 1) EDTA (Sigma Chemical Company, St. Louis, Mo., USA), 2) myricetin (Acros, Somerville, N.J., USA), 3) exifone (Acros) 4) pyrogallol (Sigma), 5) tannic acid (Acros), 6) pyrocatechol (Acros), 7) quercetin (Sigma), 8) ellagic acid (Acros), 9) 1,2,4-benzenetriol (Acros), 10) 5-hydroxydopamine (Acros), 11) gallamide hydrate (Acros), 12) gallic acid (Sigma), 13) ethyl gallate (Acros), 14) quinic acid (Acros), 15) propyl gallate (Sigma), and 16) phloroglucide (Acros), each in the presence of 150 mM Tris HCl, 10 mM NaCl (pH 7.0) with 0.02% sodium azide. In this study, the A 1-42:compound weight ratio was 1:1. […]
Thioflavin T is known to bind to fibrillar amyloid proteins, and an increase in fluorescence correlates with an increase in amyloid fibril formation, whereas a decrease in fluorescence correlates with a decrease in amyloid fibrils due to disassembly and/or disruption. The Alzheimer's Aβ protein (1-42) when placed in solution, such as distilled water, tends to spontaneously form amyloid fibrils. Using this sensitive assay, any decreases or increases in fluorescence was previously shown to correlate with a decrease or increase in the amount of amyloid fibrils (see the documents cited above), allowing one to identify and quantitate the extent of potential inhibitors and/or enhancers of Alzheimer's Aβ 1-42 amyloid fibrils.
To assess the effects of each compound on potential disassembly/disruption of preformed Aβ 1-42 fibrils, 50 μl of Aβ 1-42 with or without test compounds (described above) were added to 1.2 ml of 100 μM Thioflavin T (Sigma) in 50 mM NaH2PO4 (pH 6.0) for fluorometry readings. […] Fluorescence emission at 482 nm was measured on a Turner instrument-model 450 fluorometer at an excitation wavelength of 450 nm. For each determination, the fluorometer was calibrated by zeroing in the presence of the Thioflavin T reagent alone, and by setting the 50 ng/ml riboflavin (Sigma Chemical Co., St. Louis, Mo.) in the Thioflavin T reagent to 1800 fluorescence units. All fluorescence determinations were based on these references and any fluorescence given off by any of the compounds in the presence of the Thioflavin T reagent was always subtracted from all pertinent readings.
For all fibrillogenesis studies utilizing Thioflavin T fluorometry, as disclosed herein, comparisons of amyloid protein in the presence or absence of test compounds were based on paired Student's t tests with data shown as the mean of triplicate measurements±standard deviation.

Assay [2] deals with T2, Aβ 1-40 amyloid fibrils (Homo sapiens, UniProt P05067).
T2 construct: 1 mg of Aβ 1-40 (Bachem Inc., Torrance, Calif., USA; Lot # T-20824) was dissolved; purchased Bachem Inc., Torrance, Calif., USA
T2 sequence (P05067 672-711): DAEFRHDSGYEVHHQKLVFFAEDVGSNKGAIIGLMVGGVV
Description: Dose-dependent disaggregation of fibrillized Aβ 1-40, Congo red-Aβ spectrophotometric assay. The note with it: w/w 1:1, 100 μg/ml compound, 25 μM Aβ 1-40, overnight (~18 hours) at 37° C. The method, then: In this study, a Congo red-Aβ spectrophotometric assay (Klunk et al., Anal. Biochem. 266:66-76, 1999) was modified to determine the effectiveness of polyhydroxylated aromatic compounds on the disaggregation of pre-formed Aβ 1-40 amyloid fibrils. For this assay, 1 mg of Aβ 1-40 (Bachem) was incubated for 4 days in distilled water at 37° C. to spontaneously produce amyloid fibrils. […] Following incubation, 50 μl of 360 μM Congo red (Sigma) in distilled water was then added to 250 μl of each incubation mixture, giving a final Aβ:Congo red molar ratio of 1:3. After 10 minutes, the absorbance at 405 nm (reference wavelength to account for the absorbance of Congo red alone at 540 nm) and 540 nm (sample absorbance where “sample” refers to Aβ alone, test compound alone, or Aβ plus test compound, all in the presence of Congo red) was determined using a Biorad Model 550 ELISA Plate Reader (Biorad, Hercules, Calif., USA). The absorbance at wavelength 405 nm was automatically subtracted by the ELISA plate reader from the absorbance at wavelength 540 nm (difference is referred to as A absorbance)(see Klunk et al. cited above). Therefore, the A absorbance reading at 540 nm was proportional to the amount of aggregated Aβ left in solution (Klunk et al.). […]
In this study, the potential dose-dependent effects of tannic acid and gallic acid on the disaggregation of fibrillized Aβ 1-40 was assessed. […]

Assay [3] deals with T3, human amylin fibrils (Homo sapiens, UniProt P10997).
T3 construct: This amyloid protein involved consists of a 37 amino acid protein known as islet amyloid polypeptide or amylin; purchased Bachem
T3 sequence (P10997 34-70 limits assumed): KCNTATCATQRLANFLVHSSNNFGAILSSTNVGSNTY
The experiment in a line: Congo red staining of amylin fibrils on slides. The note with it: overnight incubation of amylin with compound, compared with amylin alone. The method, then:
Following Thioflavin T fluorometry readings as described in Example 1, 5 μl aliquots of amylin only, amylin+myricetin, amylin+exifone, and amylin+tannic acid were also taken, allowed to air dry overnight on gelatin-coated slides, and stained with Congo red as previously described (Castillo et al., Diabetes 47:612-620, 1998).

Setting [4] is: Aβ 1-42:compound w/w 1:1, 100 μg/ml compound, 25 μM Aβ 1-42, overnight (~18 hours) at 37° C., mean of triplicate ± SD.

Each structure is given as a SMILES string. Where two headings read alike, the source gives them in different places.

T1 sequence (P05067 672-713): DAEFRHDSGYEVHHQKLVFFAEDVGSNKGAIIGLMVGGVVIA

With `O=C(O)c1cc(O)c(O)c(O)c1` [Gallic acid, gallic acid], the inhibition at 100 µg/mL in assay [1] (setting [4]) was 57 ± 1.9%. Also, the “Decrease in absorbance, %, at the Aβ 1-40:compound w/w ratio 1:1” value in assay [2] came to 32 ± 4.8%.

In the case of `NCCc1cc(O)c(O)c(O)c1` [5-Hydroxydopamine, 5-hydroxydopamine], the inhibition at 100 µg/mL in assay [1] (setting [4]) was found to be 70 ± 1.1%.

In the case of `O=c1c(O)c(-c2ccc(O)c(O)c2)oc2cc(O)cc(O)c12` [Quercetin, quercetin], in assay [1] (setting [4]), the “Fluorescence inhibition, %, at the Aβ 1-42:compound w/w ratio 1:1” value worked out at 76 ± 0.6%.

For `NC(=O)c1cc(O)c(O)c(O)c1` [Gallamide trihydrate, gallamide trihydrate], in assay [1] (18 h), the inhibition at 100 µg/mL turned out to be 65 ± 12.3%.

In the case of `O=c1c(O)c(-c2cc(O)c(O)c(O)c2)oc2cc(O)cc(O)c12` [Myricetin, myricetin], in assay [3], the “Congo red staining of amylin fibrils (red/green birefringence under polarized light)” value is listed as “marked decrease in Congo red staining”. Besides, the inhibition at 100 µg/mL in assay [1] (18 h) turned out to be 94 ± 0.9%.

Consider `Oc1ccc(O)c(O)c1` [1,2,4-Benzenetriol, 1,2,4-benzenetriol], for which the inhibition at 100 µg/mL in assay [1] (setting [4]) was determined as 71 ± 3.3%.

Consider `O=C(O)CN(CCN(CC(=O)O)CC(=O)O)CC(=O)O` [EDTA, reference compound], for which the “Disassembly/disruption of Aβ 1-42 amyloid fibrils (result in words)” value in assay [1] (100 μg/ml, 25 μM Aβ 1-42, overnight (~18 hours) at 37° C., Thioflavin T fluorometry) was “no significant disassembly/disruption”.

As to `O=C(O)[C@]1(O)C[C@@H](O)[C@@H](O)[C@H](O)C1` [Quinic acid, quinic acid], in assay [1] (setting [4]), the inhibition at 100 µg/mL amounted to 31 ± 9%.

For the molecule `Oc1ccccc1O` [Pyrocatechol, pyrocatechol], the inhibition at 100 µg/mL in assay [1] (setting [4]) came out at 77 ± 2.6%.

Turning to `O=C(c1cc(O)c(O)c(O)c1)c1ccc(O)c(O)c1O` [Exifone, exifone], in assay [3], the “Congo red staining of amylin fibrils (red/green birefringence under polarized light)” value is given as “marked decrease in Congo red staining”. For the same molecule, the inhibition at 100 µg/mL in assay [1] (18 h) is 93 ± 1.4%.

`CCOC(=O)c1cc(O)c(O)c(O)c1` [Ethyl gallate, ethyl gallate]: the inhibition at 100 µg/mL in assay [1] (setting [4]) stood at 49 ± 0.8%.

For `O=C(OC[C@H]1O[C@@H](OC(=O)c2cc(O)c(O)c(OC(=O)c3cc(O)c(O)c(O)c3)c2)[C@H](OC(=O)c2cc(O)c(O)c(OC(=O)c3cc(O)c(O)c(O)c3)c2)[C@@H](OC(=O)c2cc(O)c(O)c(OC(=O)c3cc(O)c(O)c(O)c3)c2)[C@@H]1OC(=O)c1cc(O)c(O)c(OC(=O)c2cc(O)c(O)c(O)c2)c1)c1cc(O)c(O)c(OC(=O)c2cc(O)c(O)c(O)c2)c1` [Tannic acid, tannic acid], the “Congo red staining of amylin fibrils (red/green birefringence under polarized light)” value in assay [3] is “marked decrease in Congo red staining”. In addition, the inhibition at 100 µg/mL in assay [1] (18 h) is 77 ± 1.3%.

Regarding `CCCOC(=O)c1cc(O)c(O)c(O)c1` [Propyl gallate, propyl gallate], the inhibition at 100 µg/mL in assay [1] (setting [4]) was 29 ± 2.8%.

In the case of `O=c1oc2c(O)c(O)cc3c(=O)oc4c(O)c(O)cc1c4c23` [Ellagic acid, ellagic acid], in assay [1] (setting [4]), the inhibition at 100 µg/mL came out at 74 ± 1.4%.

As for `Oc1cccc(O)c1O` [Pyrogallol, pyrogallol], the inhibition at 100 µg/mL in assay [1] (setting [4]) was 89 ± 6.7%.
